Values after ≈ are worked out from the molar mass of the structure shown. Read-outs that look alike come from different tables or passages of the source.
Key:
[1] = biological target: FabI enzyme from Acinetobacter baumannii (Acinetobacter baumannii, UniProt D0CAD5); experiment: Inhibition of FabI enzyme, rate of NADH consumption; format: biochemical
Description: (§1) Inhibition of FabI enzyme from Acinetobacter baumannii and Escherichia coli was tested by measuring the rate of NADH consumption (Δabsorbance at 340 nm/min) at 30° C. in 96-well plate format using an automated plate reader in the presence or absence of the test compounds. The assay mixture contained 100 mM Tris-HCl, pH 7.25 (A. baumannii) or 7.5 (E. coli), 100 mM ammonium acetate, 0.02% (A. baumannii) or 0.05% (E. coli) Pluronic F-68, 25 μM crotonyl ACP, 50 μM NADH, 25 pM (A. baumannii) or 50 pM (E. coli) recombinant FabI protein, and 7.5% DMSO. Test compounds were added at concentrations ranging from 0.17 to 10,000 nM in a final well volume of 100 μl. This dose-response inhibitory assay was performed using a 10-point, serial dilution series for each test compound. IC50 values for each test compound were assigned from logistical sigmoid curve-fitting of the inhibition dose response curves.

[2] = test system: A. baumannii ATCC BAA1605; experiment: Broth microdilution MIC assay; format: cell-based; details: Acinetobacter baumannii, ATCCBAA1605; CA-MHB, 35° C., 20 hours
Description: (§2) The antibacterial activity of FabI inhibitors against select Gram-negative and Gram-positive bacterial species including susceptible and multi-drug resistant A. baumannii, E. coli, K. pneumoniae and S. aureus was tested using the broth microdilution Minimal Inhibitory Concentration (MIC) assay following CLSI guidelines for insoluble compounds. Test articles were serially diluted 2-fold in 100% dimethyl sulfoxide (DMSO) and then diluted 100-fold into cation adjusted Mueller-Hinton broth (CA-MHB) to achieve a 10-point test concentration range in 1% DMSO. Final compound concentrations were 0.016-8 μg/ml for S. aureus or 0.06-32 μg/ml for the Gram-negative species. MIC test plates were then prepared by transferring 100 μl of the final assay medium (test article in CA-MHB, 1% DMSO) into the appropriate wells of a sterile, low binding 96-well polystyrene plate. Direct colony suspension inoculums of the test strains were freshly prepared per CLSI guidelines, and the appropriate test wells were inoculated to achieve a final bacterial cell density of 5×10^5 CFU/ml. Growth control (no test article) and negative control (no bacterial inoculum) wells were also included. Exposure to light was minimized during all stages of assay preparation. […] Bacterial growth was then determined by measuring the optical density at 600 nm (OD600) using a SpectraMax Plus plate-reader spectrophotometer.

[3] = test system: E. coli AG100; experiment: Broth microdilution MIC assay; format: cell-based; details: Escherichia coli, CA-MHB, 35° C., 20 hours
Description: as §2

[4] = test system: Acinetobacter baumannii ATCC 17978; experiment: Mouse thigh infection model; format: in vivo, BALB/c mice; details: for Mean Change log CFU/g thigh 72 hr / Mean Change log CFU/g thigh 24 hr: vs. time 0 control; for Mean Log CFU/g thigh 72 hr: 72 hr treatment; for Mean Log CFU/g thigh 24 hr: 24 hr treatment
Description: (§3) Groups of 5 female specific-pathogen-free BALB/c mice weighing 18±2 g were used. In the 24 hr model (bacterial counts determined 24 hr after treatment start), mice were rendered neutropenic with cyclophosphamide intraperitoneal (IP) administration conducted at Days −4 (150 mg/kg), and day −1 (100 mg/kg). In the 72 hr model (bacterial counts determined 72 hr after treatment start), animals were rendered persistently neutropenic for the duration of the infection period with cyclophosphamide intraperitoneal (IP) administration conducted at Days −4 (150 mg/kg), −1 (100 mg/kg) and +1 (100 mg/kg). Persistent neutropenia is required to prevent pathogen clearance from thigh tissue in the 74 hr model. Nutritional supplementation (diet gel) plus saline SC injections were provided daily to help animals tolerate the cyclophosphamide treatment.
(§4) On day 0, animals were inoculated intramuscularly (0.1 ml/thigh) with a 1.67×10^4 inoculum count of Acinetobacter baumannii ATCC 17978. Vehicle control (40% Captisol), positive control (tigecycline) or test substances were then administered 2 hr post infection by the subcutaneous (SC) route of administration. Each dosing group consisted of 5 female mice. The MICs of the compounds against the test strain were 8 μg/ml, 2 μg/ml and […] for compound 201, compound 71 and compound 200, respectively. At 26 or 74 hours after inoculation (24 or 72 hr after treatment initiation), animals were euthanized with CO2 asphyxiation and the thigh tissue harvested from each of the test animals. The tissues were homogenized in 3 mL of PBS, pH 7.4 with a homogenizer. Homogenates, 0.1 mL, were used for serial 10-fold dilutions and plated onto NB agar for colony counts. Efficacy is calculated as the change in log CFU/g thigh vs. the time 0 (treatment initiation) control.

[5] = test system: Acinetobacter baumannii ATCC 17978; experiment: MIC against the in vivo test strain; format: cell-based; details: A. baumannii ATCC 17978; for MIC: Acinetobacter baumannii, ATCC17978
Description: as §2, §4
On day 0, animals were anesthetized with etomidate-lipuro emulsion (20 mg/10 mL; 20 mg/kg dose, IV) and then inoculated intranasally with an A. baumannil ATCC 17978 suspension, 1.36×10^5 CFU/mouse, 0.02 mL/mouse. […] Efficacy is calculated as the change in log CFU/g thigh vs. the time 0 (treatment initiation) control.

[6] = test system: A. baumannil ATCC 17978; experiment: Mouse lung infection model; format: in vivo, BALB/c mice; details: for Mean change log CFU/g lung 24 hr / Mean change log CFU/g lung 72 hr: vs. time 0 control; for Mean Log CFU/g lung 24 hr: 24 hr treatment; for Mean Log CFU/g lung 72 hr: 72 hr treatment
Description: as §3, with “lung” for “thigh”
On day 0, animals were anesthetized with etomidate-lipuro emulsion (20 mg/10 mL; 20 mg/kg dose, IV) and then inoculated intranasally with an A. baumannil ATCC 17978 suspension, 1.36×10^5 CFU/mouse, 0.02 mL/mouse. Vehicle control (40% Captisol), positive control (tigecycline) or test substances were then administered 2 hr post infection by the subcutaneous (SC) route of administration. Each dosing group consisted of 5 female mice. The MICs of the compounds against the test strain were 8 μg/ml and 0.5 μg/ml for compound 201 and compound 200, respectively. At 26 or 74 hours after inoculation (24 or 72 hr after treatment initiation), animals were euthanized with CO2 asphyxiation and the lung tissue harvested from each of the test animals. The tissues were homogenized in 1 ml of PBS, pH 7.4 with a homogenizer. Homogenates, 0.1 mL, were used for serial 10-fold dilutions and plated onto MacConkey II agar for colony counts. Efficacy is calculated as the change in log CFU/g […] vs. the time 0 (treatment initiation) control.

[7] = biological target: FabI enzyme from Escherichia coli (Escherichia coli, UniProt P0AEK4); experiment: Inhibition of FabI enzyme, rate of NADH consumption; format: biochemical; details: recombinant FabI, 30° C., pH 7.5; read-out: E. coli Fabl IC50
Sequence of FabI enzyme from Escherichia coli (P0AEK4 whole entry): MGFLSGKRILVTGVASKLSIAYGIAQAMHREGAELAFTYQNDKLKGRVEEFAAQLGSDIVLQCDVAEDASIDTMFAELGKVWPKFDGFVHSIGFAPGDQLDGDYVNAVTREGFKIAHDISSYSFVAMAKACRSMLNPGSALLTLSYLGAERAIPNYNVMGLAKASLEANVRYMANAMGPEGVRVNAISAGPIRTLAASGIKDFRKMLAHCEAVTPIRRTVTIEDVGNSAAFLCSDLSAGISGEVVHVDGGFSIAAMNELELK
Description: as §1

[8] = test system: S. aureus ATCC 29213; experiment: Broth microdilution MIC assay; format: cell-based; details: Staphylococcus aureus, ATCC29213; CA-MHB, 35° C., 20 hours
Description: as §2

[9] = test system: K. pneumoniae A6030827; experiment: Broth microdilution MIC assay; format: cell-based; details: Klebsiella pneumoniae, CA-MHB, 35° C., 20 hours
Description: as §2

[10] = 25 mg/kg q6h SC, total daily dose 100 mg/kg
[11] = 50 mg/kg q6h SC, total daily dose 200 mg/kg
[12] = recombinant FabI, 30° C., pH 7.25, read-out: A. baumannii Fabl IC50
[13] = following both 24 hr and 72 hr treatment, SC

Sequence of FabI enzyme from Acinetobacter baumannii (D0CAD5 entry or part of it): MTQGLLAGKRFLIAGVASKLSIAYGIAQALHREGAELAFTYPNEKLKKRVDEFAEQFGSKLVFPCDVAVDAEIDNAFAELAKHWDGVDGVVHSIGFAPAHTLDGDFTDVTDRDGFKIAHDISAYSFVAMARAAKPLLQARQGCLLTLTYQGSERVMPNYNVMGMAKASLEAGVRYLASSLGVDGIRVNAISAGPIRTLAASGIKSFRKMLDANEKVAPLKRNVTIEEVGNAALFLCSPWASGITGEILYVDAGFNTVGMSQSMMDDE

Row | Structure (SMILES) | MIC [2] [µg/mL] | MIC [3] [µg/mL] | Mean Change log CFU/g thigh 72 hr ([4]; 25 mg/kg q6h SC) [log CFU/g thigh] | Mean Log CFU/g thigh 72 hr [4, 10] [log CFU/g thigh] | Mean Change log CFU/g thigh 24 hr ([4]; 50 mg/kg q6h SC) [log CFU/g thigh] | Mean Change log CFU/g thigh 72 hr ([4]; 50 mg/kg q6h SC) [log CFU/g thigh] | Mean Log CFU/g thigh 24 hr [4, 11] [log CFU/g thigh] | Mean Log CFU/g thigh 72 hr [4, 11] [log CFU/g thigh] | MIC [5] [µg/mL] | Mean change log CFU/g lung 24 hr ([6]; 25 mg/kg q6h SC) [log CFU/g lung] | Mean change log CFU/g lung 72 hr ([6]; 25 mg/kg q6h SC) [log CFU/g lung] | Mean Log CFU/g lung 24 hr [6, 10] [log CFU/g lung] | Mean Log CFU/g lung 72 hr [6, 10] [log CFU/g lung] | Mean change log CFU/g lung 24 hr ([6]; 50 mg/kg q6h SC) [log CFU/g lung] | Mean change log CFU/g lung 72 hr ([6]; 50 mg/kg q6h SC) [log CFU/g lung] | Mean Log CFU/g lung 24 hr [6, 11] [log CFU/g lung] | IC50 [7] [nM] | IC50 [1, 12] [nM] | MIC [8] [µg/mL] | MIC [9] [µg/mL] | other results
1 | Cc1c(CN(C)C(=O)/C=C/c2cnc3c(c2)CC(N)C(=O)N3)oc2ccccc12.Cl (stereo not drawn) [Compound 201, (E)-3-(6-amino-7-oxo-5,6,7,8-tetrahydro-1,8-naphthyridin-3-yl)-N-methyl-N-((3-methylbenzofuran-2-yl)methyl)acrylamide hydrochloride, reference compound] | 16 | 8 | 2.24 | 7.09 | 2.26 | 1.86 | 7.11 | 6.70 | 8 | 1.02 | 0.21 | 7.32 | 6.51 | 0.26 | −0.35 | 6.56 | – | – | – | – | IC50 [1]: 19 nM; efficacy in words, thigh model summary ([4]; SC, 24 hr and 72 hr treatment): no efficacy; Mean Log CFU/g lung 72 hr [6, 11]: 5.95 log CFU/g lung; efficacy in words, lung model summary ([6]; SC, 24 hr and 72 hr treatment): very slight efficacy
2 | Cc1c(CN(C)C(=O)/C=C/c2cnc3c(c2)NC[C@H](N)C(=O)N3)oc2ccccc12 [Compound 8, (S,E)-3-(3-amino-4-oxo-2,3,4,5-tetrahydro-1H-pyrido[2,3-b][1,4]diazepin-8-yl)-N-methyl-N-((3-methylbenzofuran-2-yl)methyl)acrylamide] | ≤ 4 | ≤ 4 | – | – | – | – | – | – | – | – | – | – | – | – | – | – | < 10 | < 10 | ≤ 4 | ≤ 4 | –
3 | Cc1c(CN(C)C(=O)/C=C/c2cnc3c(c2)CC[C@H](N2CC4(COC4)C2)C(=O)N3)oc2ccccc12 (single isomer, unassigned) [Compound 190] | ≤ 4 | ≤ 4 | – | – | – | – | – | – | – | – | – | – | – | – | – | – | < 10 | < 10 | ≤ 4 | ≤ 4 | –
4 | Cc1c(CN(C)C(=O)/C=C/c2cnc3c(c2)CCC(N2CCCC2)C(=O)N3)oc2ccccc12 (stereo not drawn) [Compound 182, (E)-N-methyl-N-((3-methylbenzofuran-2-yl)methyl)-3-(8-oxo-7-(pyrrolidin-1-yl)-6,7,8,9-tetrahydro-5H-pyrido[2,3-b]azepin-3-yl)acrylamide] | ≤ 4 | ≤ 4 | – | – | – | – | – | – | – | – | – | – | – | – | – | – | < 10 | < 10 | ≤ 4 | ≤ 4 | –
5 | Cc1oc2ccccc2c1CN(C)C(=O)/C=C/c1cnc2c(c1)CC[C@H](N)C(=O)N2 [Compound 200, (S,E)-3-(7-amino-8-oxo-6,7,8,9-tetrahydro-5H-pyrido[2,3-b]azepin-3-yl)-N-methyl-N-((2-methylbenzofuran-3-yl)methyl)acrylamide] | ≤ 4 | ≤ 4 | −2.27 | 2.58 | −2.53 | −2.14 | 2.31 | 2.71 | 0.5 (≈ 1.24 µM) | −2.44 | −2.21 | 3.86 | 4.09 | −3.50 | −3.39 | 2.80 | – | < 10 | ≤ 4 | – | efficacy (log kill), thigh model [4, 13]: 2.1-2.4 log kill; MIC against the test strain [5]: 0.5 µg/mL (≈ 1.24 µM); Mean Log CFU/g lung 72 hr [6, 11]: 2.91 log CFU/g lung; efficacy (log kill), lung model [6, 13]: 2.5-3.5 log kill
